This is an account of results in PubChem BioAssay (NCI).

Among the test systems are RPMI-8226 leukemia; SW-620 colon; MCF7 breast; MDA-N; IGROV1 ovarian; ACHN renal; U251 CNS; RXF 393 renal; SK-MEL-2 melanoma; LOX IMVI melanoma; OVCAR-5 ovarian; HOP-62 NSCLC; EKVX NSCLC; CCRF-CEM leukemia; SF-295 CNS; HCC-2998 colon; NCI-H522 lung; HOP-92 NSCLC.
Test in all cases: inhibition of tumour cell growth, NCI panel, 48 h

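A five-concentration, 48-hour dose response in 96-well plates underlies each endpoint, interpolated linearly between surrounding concentrations. TGI denotes the concentration required for complete inhibition of growth.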

Turning to `CCOC(=O)c1ccc(N(C)Cc2cnc3nc(N)nc(N)c3n2)cc1`, the TGI with RPMI-8226 leukemia was > 100 µM; in the test on SW-620 colon, > 100 µM; in the test with MCF7 breast it was 49.8 µM; in the test with MDA-N it was > 100 µM; in the test with IGROV1 ovarian it was 86 µM; with ACHN renal, 20.2 µM. Further, the TGI in the test on U251 CNS was > 100 µM; in the test on RXF 393 renal, 33 µM; in the test on SK-MEL-2 melanoma it was 80 µM; in the test on LOX IMVI melanoma, > 100 µM; with OVCAR-5 ovarian, > 100 µM; with HOP-62 NSCLC it was 54.7 µM. The TGI in the test on EKVX NSCLC, in the test on CCRF-CEM leukemia and with SF-295 CNS was > 100 µM each time.
In the case of `CC1(C)CCCCC1/C=C/C(CC(O)(C(F)(F)F)C(F)(F)F)=N\Nc1ccc([N+](=O)[O-])cc1[N+](=O)[O-]` (stereo not drawn), the TGI in the test on RPMI-8226 leukemia is 1.27 µM; in the test on SW-620 colon it was 11.4 µM; in the test on MCF7 breast, 5.42 µM; with MDA-N, 11.9 µM; in the test on IGROV1 ovarian it was 15.8 µM; in the test on HCC-2998 colon, > 100 µM. The TGI in the test with ACHN renal was found to be 3.17 µM; in the test with U251 CNS, 10.7 µM; in the test on RXF 393 renal, 1.85 µM; with SK-MEL-2 melanoma it was 30 µM; in the test on LOX IMVI melanoma it was 10.6 µM; in the test with OVCAR-5 ovarian it was 13.1 µM. Besides, the TGI with HOP-62 NSCLC was 10.7 µM; in the test with NCI-H522 lung, 13.1 µM; with CCRF-CEM leukemia it was 4.91 µM; with SF-295 CNS, 9.01 µM.
Consider `CNC(=S)N/N=C(\C)c1cc(OC)c(OC)cc1O`, for which the TGI in the test with RPMI-8226 leukemia, in the test on SW-620 colon, in the test on MCF7 breast, in the test on MDA-N, in the test on IGROV1 ovarian and in the test on HCC-2998 colon was > 100 µM in each case. Moreover, the TGI in the test on ACHN renal, with U251 CNS, in the test with RXF 393 renal, in the test with SK-MEL-2 melanoma, with OVCAR-5 ovarian and in the test with HOP-62 NSCLC was > 100 µM in each case. In addition, the TGI in the test with EKVX NSCLC and with CCRF-CEM leukemia was > 100 µM throughout.
As for `CCOC(=O)C(=O)N=Nc1c(O)[nH]c2ccccc12`, the TGI in the test on RPMI-8226 leukemia, with SW-620 colon, in the test on MCF7 breast, in the test with MDA-N, in the test on IGROV1 ovarian and with HCC-2998 colon was > 100 µM throughout. The TGI with ACHN renal, with U251 CNS, in the test with RXF 393 renal, with SK-MEL-2 melanoma, in the test with LOX IMVI melanoma and in the test with OVCAR-5 ovarian was > 100 µM throughout. Moreover, the TGI in the test on HOP-62 NSCLC, in the test with NCI-H522 lung, in the test with EKVX NSCLC, in the test with CCRF-CEM leukemia and in the test on SF-295 CNS was > 100 µM in each case.
Consider `COc1cc(S(=O)(=O)Nc2ccc(-c3csc(/N=C\c4ccccc4O)n3)cc2)ccc1Cl`, for which the TGI in the test on RPMI-8226 leukemia was > 100 µM; in the test on SW-620 colon it was > 100 µM; with MCF7 breast it was 59.7 µM; with MDA-N, > 100 µM; in the test with IGROV1 ovarian, > 100 µM; in the test on ACHN renal, > 100 µM. Moreover, the TGI is > 100 µM in the test on RXF 393 renal; 78.5 µM in the test with SK-MEL-2 melanoma; > 100 µM in the test on LOX IMVI melanoma; > 100 µM in the test with HOP-92 NSCLC; > 100 µM in the test on OVCAR-5 ovarian; > 100 µM with HOP-62 NSCLC. For the same compound, the TGI with NCI-H522 lung, in the test on EKVX NSCLC, in the test on CCRF-CEM leukemia and in the test with SF-295 CNS was > 100 µM throughout.
Turning to `CCOC(=O)C(=NN(C)c1ncccc1N)C(=O)OCC`, the TGI is > 100 µM in the test with RPMI-8226 leukemia; 70.3 µM with SW-620 colon; 39.7 µM with MCF7 breast; > 100 µM in the test with MDA-N; > 100 µM in the test on IGROV1 ovarian; > 100 µM in the test with U251 CNS. Moreover, the TGI was > 100 µM in the test with RXF 393 renal; > 100 µM with SK-MEL-2 melanoma; 38.1 µM with LOX IMVI melanoma; 46.2 µM in the test on HOP-92 NSCLC; > 100 µM with HOP-62 NSCLC; > 100 µM with CCRF-CEM leukemia. Moreover, the TGI with SF-295 CNS is > 100 µM.
Consider `N=C(N)SCCSC(=N)N`, for which the TGI in the test on RPMI-8226 leukemia, in the test with SW-620 colon, in the test on MCF7 breast, with MDA-N, in the test with IGROV1 ovarian and with HCC-2998 colon was > 100 µM in each case. In addition, the TGI with ACHN renal, in the test on U251 CNS, in the test with RXF 393 renal, in the test on LOX IMVI melanoma, in the test with HOP-92 NSCLC and in the test on OVCAR-5 ovarian was > 100 µM each time. The TGI in the test with HOP-62 NSCLC, with NCI-H522 lung, with EKVX NSCLC and in the test with SF-295 CNS was > 100 µM in each case.
Consider `COCN1C(=O)[C@@H]2CCCN2C(=O)c2ccc(Cl)cc21`, for which the TGI with RPMI-8226 leukemia, in the test on SW-620 colon, in the test on MCF7 breast, with MDA-N, in the test on IGROV1 ovarian and in the test on HCC-2998 colon was > 100 µM in each case. The TGI with ACHN renal, in the test on U251 CNS, in the test with RXF 393 renal, in the test with SK-MEL-2 melanoma, with LOX IMVI melanoma and in the test on HOP-92 NSCLC was > 100 µM each time. Further, the TGI in the test with OVCAR-5 ovarian, in the test with HOP-62 NSCLC, in the test on NCI-H522 lung, with EKVX NSCLC and with SF-295 CNS was > 100 µM throughout.
For `CC(=O)c1cc2sc3ccccc3c2[nH]1`, the TGI in the test with RPMI-8226 leukemia, with SW-620 colon, in the test with MCF7 breast, in the test with MDA-N, in the test on HCC-2998 colon and in the test with ACHN renal was > 100 µM throughout. For the same compound, the TGI in the test on U251 CNS, in the test with RXF 393 renal, with SK-MEL-2 melanoma, with HOP-92 NSCLC, in the test with OVCAR-5 ovarian and in the test with HOP-62 NSCLC was > 100 µM throughout. The TGI in the test with NCI-H522 lung and in the test with SF-295 CNS was > 100 µM each time.
